Source: ChEMBL document CHEMBL1146968, “Novel skeleton terpenes from Celastrus hypoleucus with anti-tumor activities” (Bioorg Med Chem Lett, 2006)
Values after ≈ are worked out from the molar mass of the structure shown.

What was measured:
Assay type in all cases: functional, cell-based
K562 = assay: Antitumor activity against human K562 cell line by MTT assay
RKO = assay: Antitumor activity against human RKO cell line by MTT assay
Bcap37 = assay: Antitumor activity against human Bcap37 cell line by MTT assay
SMMC-7721 = assay: Antitumor activity against human SMMC7721 cell line by MTT assay

IC50 (K562)	IC50 (SMMC-7721)	SMILES	IC50 (RKO)	IC50 (Bcap37)
11.2 µg/mL (≈ 25.3 µM)	22.7 µg/mL (≈ 51.3 µM)	CC1(C)CC[C@]2(C)CC[C@]3(C)C(=CC[C@@H]4[C@@]5(C)CC[C@H](O)C(C)(C)[C@@H]5[C@@H](O)C[C@]43C)C2C1 (some centres not stated)	12.2 µg/mL (≈ 27.6 µM)	14.6 µg/mL (≈ 32.9 µM)
3.35 µg/mL (≈ 10 µM)	2.44 µg/mL (≈ 7.3 µM)	CO[C@@]12[C@H](COC(N)=O)C3=C(C(=O)C(C)=C(N)C3=O)N1C[C@@H]1N[C@@H]12 [MITOMYCIN]	1.75 µg/mL (≈ 5.23 µM)	2.33 µg/mL (≈ 6.97 µM)

SMILES	IC50 (K562)	IC50 (SMMC-7721)	IC50 (RKO)	IC50 (Bcap37)
CC1=C(C)[C@@H]2CC(=O)c3cc(O)c(O)cc3[C@@]2(C)CC1 [CELAHYPODIOL]	16.2 µg/mL (≈ 59.5 µM)	38 µg/mL (≈ 140 µM)	27.2 µg/mL (≈ 99.7 µM)	24.4 µg/mL (≈ 89.7 µM)
